According to ChEMBL document CHEMBL1649573, “Protein kinase G is required for intrinsic antibiotic resistance in mycobacteria” (2009):
Converted amounts (≈) assume the structure as drawn. The source made the active and inactive calls. The calls are words filed in the database; no cut-off is given here.

Legend:
[1] = tested on: Mycobacterium tuberculosis; assay: Antimycobacterial activity against Mycobacterium tuberculosis H37Rv at 100 mg/l after 7 days by microscopy; assay type: functional, organism-based
[2] = tested on: Mycobacterium tuberculosis; assay: Antimycobacterial activity against PknGMtb-deficient Mycobacterium tuberculosis H37Rv at 100 mg/l after 7 days by microscopy; assay type: functional, organism-based
[3] = tested on: Mycolicibacterium smegmatis; assay: Antimycobacterial activity against Mycobacterium smegmatis MC2 155 by Etest method; assay type: functional; conditions: str. MC2 155
[4] = tested on: Mycolicibacterium smegmatis; assay: Antimycobacterial activity against Mycobacterium smegmatis harboring PknG Msm gene by Etest method; assay type: functional
[5] = tested on: Mycolicibacterium smegmatis; assay: Antimycobacterial activity against PknGMsm-deficient Mycobacterium smegmatis harboring PknG K181M mutant gene by Etest method; assay type: functional
[6] = tested on: Mycolicibacterium smegmatis; assay: Antimycobacterial activity against PknGMsm-deficient Mycobacterium smegmatis by Etest method; assay type: functional
[7] = tested on: Mycolicibacterium smegmatis; assay: Antimycobacterial activity against Mycobacterium smegmatis MAR4 harboring disrupted PknGMsm gene by Etest method; assay type: functional
[8] = tested on: Mycolicibacterium smegmatis; assay: Antimycobacterial activity against Mycobacterium smegmatis MC2 155 harboring PknG K181M mutant gene by Etest method; assay type: functional; conditions: str. MC2 155

Row | SMILES | Activity [1] | Activity [2] | MIC [3] [µg/mL] | MIC [4] [µg/mL] | MIC [5] [µg/mL] | MIC [6] [µg/mL] | MIC [7] [µg/mL] | MIC [8] [µg/mL]
1 | CC[C@H]1OC(=O)[C@H](C)[C@@H](O[C@H]2C[C@@](C)(OC)[C@@H](O)[C@H](C)O2)[C@H](C)[C@@H](O[C@@H]2O[C@H](C)C[C@H](N(C)C)[C@H]2O)[C@](C)(O)C[C@@H](C)C(=O)[C@H](C)[C@@H](O)[C@]1(C)O [ERYTHROMYCIN] | inactive | Active | 32 (≈ 43.6 µM) | 32 (≈ 43.6 µM) | 3 (≈ 4.09 µM) | 3 (≈ 4.09 µM) | 4 (≈ 5.45 µM) | 12 (≈ 16.4 µM)
2 | CC[C@@H](CO)NCCN[C@@H](CC)CO [ETHAMBUTOL] |  |  | 0.25 (≈ 1.22 µM) | 0.25 (≈ 1.22 µM) |  | 0.064 (≈ 0.313 µM) | 0.064 (≈ 0.313 µM) | 0.064 (≈ 0.313 µM)
3 | C[C@@H](O)[C@H]1C(=O)N2C(C(=O)O)=C(SCCNC=N)C[C@H]12 [IMIPENEM ANHYDROUS] |  |  | 6 (≈ 20 µM) | 6 (≈ 20 µM) | 0.38 (≈ 1.27 µM) | 0.38 (≈ 1.27 µM) | 0.38 (≈ 1.27 µM) | 1 (≈ 3.34 µM)
4 | CO[C@H]1/C=C/O[C@@]2(C)Oc3c(C)c(O)c4c(O)c(c(/C=N/N5CCN(C)CC5)c(O)c4c3C2=O)NC(=O)/C(C)=C\C=C\[C@H](C)[C@H](O)[C@@H](C)[C@@H](O)[C@@H](C)[C@H](OC(C)=O)[C@@H]1C [RIFAMPIN] |  |  | > 32 | > 32 |  | 4 (≈ 4.86 µM) | 4 (≈ 4.86 µM) | 4 (≈ 4.86 µM)
5 | CN[C@H](CC(C)C)C(=O)N[C@H]1C(=O)N[C@@H](CC(N)=O)C(=O)N[C@H]2C(=O)N[C@H]3C(=O)N[C@H](C(=O)N[C@H](C(=O)O)c4cc(O)cc(O)c4-c4cc3ccc4O)[C@H](O)c3ccc(c(Cl)c3)Oc3cc2cc(c3O[C@@H]2O[C@H](CO)[C@@H](O)[C@H](O)[C@H]2O[C@H]2C[C@](C)(N)[C@H](O)[C@H](C)O2)Oc2ccc(cc2Cl)[C@H]1O [VANCOMYCIN] |  |  | 48 (≈ 33.1 µM) | 48 (≈ 33.1 µM) | 4 (≈ 2.76 µM) | 4 (≈ 2.76 µM) | 4 (≈ 2.76 µM) | 16 (≈ 11 µM)
